Where two headings read alike, the source gives them in different places.
Columns and labels:
[1] = target: T1, μ opiate receptor (MOR) (Rattus norvegicus, UniProt P33535); assay: MOR agonist activity, [35S]GTPγS binding assay using striatal membranes; type: biochemical; details: for [35S]GTPγS binding to Gαo, FLNA-binding compound as agonist 0.1 μM: 0.1 μM compound; for [35S]GTPγS binding to Gαo, FLNA-binding compound as agonist 0.1 μM / [35S]GTPγS binding to Gαo, FLNA-binding compound as agonist 1 μM: striatal membranes; for [35S]GTPγS binding to Gαo, FLNA-binding compound as agonist 1 μM + BFNA: 1 μM compound + 1 μM β-funaltrexamine; for [35S]GTPγS binding to Gαo, FLNA-binding compound as agonist 1 μM: 1 μM compound; for % DAMGO + BFNA: relative to DAMGO + BFNA; for % DAMGO (0.1 μM) / % DAMGO (1 μM): relative to DAMGO
T1 construct: from tissue; host or cells: striatal tissue (membrane preparation)
Description: To assess the μ opiate receptor (MOR) agonist activity of positive compounds from the FLNA screening, compounds were tested in a [^35S]GTPγS binding assay using striatal membranes.
Striatal tissue was homogenized in 10 volumes of ice cold 25 mM HEPES buffer, pH 7.4, which contained 1 mM EGTA, 100 mM sucrose, 50 μg/ml leupeptin, 0.04 mM PMSF, 2 μg/ml soybean trypsin inhibitor and 0.2% 2-mercaptoethanol. The homogenates were centrifuged at 800×g for 5 minutes and the supernatants were centrifuged at 49,000×g for 20 minutes. The resulting pellets were suspended in 10 volume of reaction buffer, which contained 25 mM HEPES, pH 7.5, 100 mM NaCl, 50 μg/ml leupeptin, 2 μg/ml soybean trypsin inhibitor, 0.04 mM PMSF and 0.02% […].
The resultant striatal membrane preparation (200 μg) was admixed and maintained (incubated) at 30° C. for 5 minutes in reaction buffer as above that additionally contained 1 mM MgCl2 and 0.5 nM [^35S]GTPγS (0.1 μCi/assay, PerkinElmer Life and Analytical Sciences) in a total volume of 250 μl and continued for 5 minutes in the absence or presence of 0.1-10 μM of an assayed compound of interest. The reaction was terminated by dilution with 750 μl of ice-cold reaction buffer that contained 20 mM MgCl2 and 1 mM EGTA and immediate centrifugation at 16,000×g for 5 minutes.
The resulting pellet was solubilized by sonicating for 10 seconds in 0.5 ml of immunoprecipitation buffer containing 0.5% digitonin, 0.2% sodium cholate and 0.5% NP-40. Normal rabbit serum (1 μl) was added to 1 ml of lysate and incubated at 25° C. for 30 minutes. Nonspecific immune complexes were removed by incubation with 25 μl of protein A/G-conjugated agarose beads at 25° C. for 30 minutes followed by centrifugation at 5,000×g at 4° C. for 5 minutes. The supernatant was divided and separately incubated at 25° C. for 30 minutes with antibodies raised against Gao proteins (1:1,000 dilutions).
The immunocomplexes so formed were collected by incubation at 25° C. for 30 minutes with 40 μl of agarose-conjugated protein A/G beads and centrifugation at 5,000×g at 4° C. for 5 minutes. The pellet was washed and suspended in buffer containing 50 mM Tris-HCl, pH 8.0, and 1% NP-40. The radioactivity in the suspension was determined by liquid scintillation spectrometry. […] DAMGO (H-Tyr-D-Ala-Gly-N-MePhe-Gly-OH; 1 or 10 μM) was used as a positive control.

[2] = Mouse hot-water tail-flick test; type: in vivo
Description: The mouse “tail flick” test was used to assay the relative antinociceptive activity of compositions containing a compound to be assayed. This assay was substantially that disclosed by Xie et al., 2005 J. Neurosci 25:409-416.
The mouse hot-water tail-flick test was performed by placing the distal third of the tail in a water bath maintained at 52° C. The latency until tail withdrawal from the bath was determined and compared among the treatments. A 10 second cutoff was used to avoid tissue damage. Data are converted to percentage of antinociception by the following formula: (response latency−baseline latency)/(cutoff−baseline latency)×100 to generate dose-response curves. […] Relative potency was determined as a ratio of the A50 values.
To assess tolerance to the antinociceptive effect, the compound was administered twice daily for 7 days at an A90 dose (dose that results in a 90% antinociceptive effect in the 52° C. warm-water tail-flick test), and the tail-flick test was performed daily after the a.m. dose.

[3] = target: Bn-VAKGL pentapeptide of filamin A (FLNA) (Homo sapiens, UniProt P21333); assay: FITC-NLX-based FLNA screening assay (FLNA peptide binding assay)
Description: The final assay volume is 100 μl.
Compounds are tested in triplicate or quadruplicate.

[4] = target: filamin A (Homo sapiens, UniProt P21333); details: Wang et al, 2008 PLoS One 3:e1554; read-out: affinity of binding to filamin A; cited from earlier work
[5] = system: MOR coupling to Gαs/olf and Gαo; assay: Relative Gs/Go switching, MOR-G protein coupling in organotypic striatal slice cultures; type: cell-based; details: rat striatal slices
Description: Striatal slices ([…]) were prepared using a McIlwain tissue chopper (Mickle Laboratory Engineering Co., Surrey, UK). Slices were carefully transferred to sterile, porous culture inserts (0.4 μm, Millicell-CM) using the rear end of a glass Pasteur pipette. Each culture insert unit contained 2 slices and was placed into one well of the 12-well culture tray. […] The pH value was adjusted to 7.2 with HEPES buffer.
Cultures were first incubated for 2 days to minimize the impact of injury from slice preparation. Incubator settings throughout the experiment were 36° C. with 5% CO2.
Slices were returned to culture medium with normal serum after each drug exposure. Tissues were harvested 16 hours after the last drug exposure by centrifugation.
For determination of MOR-G protein coupling, slices were homogenized to generate synaptic membranes. […] Following centrifugation, striatal membrane lysates were immunoprecipitated with immobilized anti-Gαs/olf or -Gαo conjugated with immobilized protein G-agarose beads. The level of MOR in anti-Gαs/olf or -Gαo immunoprecipitates was determined by Western blotting using specific anti-MOR antibodies.

[6] = read-out: Percent inhibition of FITC-NLX binding, 0.01 μM, 0.01 μM compound, 10 nM FITC-NLX
[7] = read-out: Percent inhibition of FITC-NLX binding, 0.1 μM, 0.1 μM compound, 10 nM FITC-NLX
[8] = read-out: Percent inhibition of FITC-NLX binding, 1 μM, 1 μM compound, 10 nM FITC-NLX
[9] = read-out: Percent inhibition of FITC-NLX binding, 0.01 μM
[10] = read-out: Percent inhibition of FITC-NLX binding, 0.1 μM
[11] = read-out: Percent inhibition of FITC-NLX binding, 1 μM

T1 sequence (P33535 whole entry): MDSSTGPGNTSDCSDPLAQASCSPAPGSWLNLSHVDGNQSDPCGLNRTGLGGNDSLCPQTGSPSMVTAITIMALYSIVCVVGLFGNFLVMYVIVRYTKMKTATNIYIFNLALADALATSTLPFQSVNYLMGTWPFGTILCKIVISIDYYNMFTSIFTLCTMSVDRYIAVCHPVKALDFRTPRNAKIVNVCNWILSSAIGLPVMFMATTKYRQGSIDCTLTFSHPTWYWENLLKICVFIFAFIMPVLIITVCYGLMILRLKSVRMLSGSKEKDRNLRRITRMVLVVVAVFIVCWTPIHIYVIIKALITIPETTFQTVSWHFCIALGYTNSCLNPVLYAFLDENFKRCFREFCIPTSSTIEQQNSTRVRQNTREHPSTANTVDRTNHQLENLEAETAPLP
Sequence of filamin A (P21333 whole entry): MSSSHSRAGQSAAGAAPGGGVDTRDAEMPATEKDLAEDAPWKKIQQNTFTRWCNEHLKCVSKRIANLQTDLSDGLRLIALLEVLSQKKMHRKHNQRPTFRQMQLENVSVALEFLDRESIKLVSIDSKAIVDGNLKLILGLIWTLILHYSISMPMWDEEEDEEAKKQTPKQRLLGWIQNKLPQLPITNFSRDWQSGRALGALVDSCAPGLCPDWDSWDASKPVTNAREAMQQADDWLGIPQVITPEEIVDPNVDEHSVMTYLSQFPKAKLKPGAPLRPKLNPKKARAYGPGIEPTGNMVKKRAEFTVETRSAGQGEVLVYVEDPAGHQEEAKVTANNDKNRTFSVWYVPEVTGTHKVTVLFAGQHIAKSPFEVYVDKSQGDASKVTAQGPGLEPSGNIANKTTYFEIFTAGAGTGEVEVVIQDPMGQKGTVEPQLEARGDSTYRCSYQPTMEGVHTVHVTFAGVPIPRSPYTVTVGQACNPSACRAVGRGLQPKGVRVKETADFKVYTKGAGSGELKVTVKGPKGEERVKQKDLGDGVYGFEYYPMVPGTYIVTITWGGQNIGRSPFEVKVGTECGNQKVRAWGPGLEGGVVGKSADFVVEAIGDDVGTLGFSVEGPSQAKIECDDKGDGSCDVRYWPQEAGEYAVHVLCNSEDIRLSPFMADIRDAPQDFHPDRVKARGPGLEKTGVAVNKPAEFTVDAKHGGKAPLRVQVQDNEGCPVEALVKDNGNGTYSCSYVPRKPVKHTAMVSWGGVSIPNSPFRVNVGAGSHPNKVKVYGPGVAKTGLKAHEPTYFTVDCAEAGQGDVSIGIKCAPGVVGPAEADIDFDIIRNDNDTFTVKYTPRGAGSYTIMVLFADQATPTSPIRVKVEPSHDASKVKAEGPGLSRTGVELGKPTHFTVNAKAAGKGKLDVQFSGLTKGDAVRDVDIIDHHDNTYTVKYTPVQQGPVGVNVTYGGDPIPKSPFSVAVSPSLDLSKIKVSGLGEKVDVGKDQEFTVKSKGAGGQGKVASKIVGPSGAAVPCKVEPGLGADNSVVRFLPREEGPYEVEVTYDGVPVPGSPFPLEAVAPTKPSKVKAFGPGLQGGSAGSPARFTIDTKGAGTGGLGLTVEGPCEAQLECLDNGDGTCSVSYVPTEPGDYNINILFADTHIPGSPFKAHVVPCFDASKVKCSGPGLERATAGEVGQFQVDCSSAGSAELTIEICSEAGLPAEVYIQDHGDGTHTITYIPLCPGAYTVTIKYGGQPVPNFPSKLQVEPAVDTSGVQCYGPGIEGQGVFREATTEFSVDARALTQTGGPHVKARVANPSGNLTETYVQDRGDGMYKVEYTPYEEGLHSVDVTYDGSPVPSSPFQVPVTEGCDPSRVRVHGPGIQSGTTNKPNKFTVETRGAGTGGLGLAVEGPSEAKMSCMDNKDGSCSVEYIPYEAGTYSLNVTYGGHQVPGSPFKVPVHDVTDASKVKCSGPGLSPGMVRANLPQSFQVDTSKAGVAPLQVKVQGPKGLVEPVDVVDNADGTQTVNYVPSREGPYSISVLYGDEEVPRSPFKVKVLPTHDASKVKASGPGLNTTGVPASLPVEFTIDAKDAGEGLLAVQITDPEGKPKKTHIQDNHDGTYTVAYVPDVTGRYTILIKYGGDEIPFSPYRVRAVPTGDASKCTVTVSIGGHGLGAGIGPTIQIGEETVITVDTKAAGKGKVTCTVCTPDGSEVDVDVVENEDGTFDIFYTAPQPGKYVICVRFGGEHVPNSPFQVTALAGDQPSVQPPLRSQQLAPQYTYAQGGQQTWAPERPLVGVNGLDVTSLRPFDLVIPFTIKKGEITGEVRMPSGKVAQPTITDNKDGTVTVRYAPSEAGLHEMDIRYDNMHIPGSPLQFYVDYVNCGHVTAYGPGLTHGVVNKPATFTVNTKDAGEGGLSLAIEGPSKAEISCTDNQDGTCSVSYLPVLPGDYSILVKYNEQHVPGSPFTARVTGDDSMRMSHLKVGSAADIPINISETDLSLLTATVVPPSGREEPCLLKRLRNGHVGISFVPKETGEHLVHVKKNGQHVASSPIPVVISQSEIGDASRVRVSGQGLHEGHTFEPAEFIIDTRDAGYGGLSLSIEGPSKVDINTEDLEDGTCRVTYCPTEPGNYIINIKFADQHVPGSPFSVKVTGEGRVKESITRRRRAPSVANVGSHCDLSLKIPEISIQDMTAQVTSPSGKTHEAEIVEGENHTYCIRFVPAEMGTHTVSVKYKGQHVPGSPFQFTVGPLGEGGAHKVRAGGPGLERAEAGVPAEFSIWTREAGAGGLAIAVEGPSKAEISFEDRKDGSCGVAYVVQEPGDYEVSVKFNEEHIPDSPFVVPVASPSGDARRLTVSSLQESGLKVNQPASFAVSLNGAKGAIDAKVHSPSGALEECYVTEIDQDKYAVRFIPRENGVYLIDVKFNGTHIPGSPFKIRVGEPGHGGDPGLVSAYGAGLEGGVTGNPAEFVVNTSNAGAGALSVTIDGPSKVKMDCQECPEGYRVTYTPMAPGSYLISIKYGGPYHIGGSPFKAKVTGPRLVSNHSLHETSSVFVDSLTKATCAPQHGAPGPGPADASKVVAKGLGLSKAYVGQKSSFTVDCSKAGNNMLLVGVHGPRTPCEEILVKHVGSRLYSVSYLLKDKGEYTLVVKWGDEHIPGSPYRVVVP

Row | SMILES | [35S]GTPγS binding to Gαo, FLNA-binding compound as agonist 0.1 μM [1] [%] | [35S]GTPγS binding to Gαo, FLNA-binding compound as agonist 1 μM + BFNA [1] [%] | [35S]GTPγS binding to Gαo, FLNA-binding compound as agonist 1 μM [1] [%] | mean maximum antinociception ([2]; oral, 56 mg/kg) | % DAMGO + BFNA [1] [%] | % DAMGO (0.1 μM) [1] [%] | % DAMGO (1 μM) [1] [%] | other results
1 | CC1CN(CC(O)COc2cccc(F)c2)CC(C)O1 (stereo not drawn) [Compound A0049] | 232.3 | 107.1 | 370.3 | about 45% |  |  |  | 
2 | CC1CCC(C(C)C)C(OCC(O)CN2CCN(CCN3CCOCC3)CC2)C1 (stereo not drawn) [Compound A0011] | 236.3 | 47.0 | 287.5 | about 38% |  |  |  | 
3 | CN1CC[C@]23c4c5ccc(O)c4O[C@H]2[C@@H](O)C=C[C@H]3[C@H]1C5 [morphine, reference compound] |  |  |  | about 43% |  |  |  | time of maximum antinociception (peak activity) ([2]; oral, 56 mg/kg): about 20 minutes; time of maximum antinociception (peak activity) ([2]; oral, 56 mg/kg, listed as Morphine): twenty; A50 (dose that resulted in a 50% antinociceptive effect), with 95% CI ([2]; orally administered, 52° C. tail flick): 61.8 (52.4-72.9) mg/kg
4 | OC(COc1ccccc1Br)CN1CCN(CCN2CCOCC2)CC1 (stereo not drawn) [Compound A0064] | 219.2 | 43.7 | 262.9 |  | 126.7 | 127.4 | 119.7 | inhibition at 0.01 µM [3, 6]: 41.8%; inhibition at 0.1 µM [3, 7]: 46.2%; inhibition at 1 µM [3, 8]: 53.6%; mean maximum antinociception ([2]; 32 mg/kg): about 50%; time of maximum antinociception ([2]; 32 mg/kg): 30 to 50 min
5 | COc1ccc(OCC(O)CN2CCc3cc4c(c(OC)c3C2)OCO4)cc1 (stereo not drawn) [Compound A0070] | 128.6 | 80.3 | 195.3 |  | 232.8 | 74.7 | 88.9 | inhibition at 0.01 µM [3, 6]: 32.9%; inhibition at 0.1 µM [3, 7]: 39.1%; inhibition at 1 µM [3, 8]: 41.7%
6 | CC1CCC(C(C)C)C(OCC(O)CN2CCN(Cc3ccccc3)CC2)C1 (stereo not drawn) [Compound A0072] | 254.3 | 171.8 | 305.1 |  | 318.7 | 126.8 | 97.2 | inhibition at 0.01 µM [3, 9]: 45.5%; inhibition at 0.1 µM [3, 10]: 52.2%; inhibition at 1 µM [3, 11]: 59.4%
7 | CC1CN(CC(O)COc2ccccc2C(C)C)CC(C)O1 (stereo not drawn) [Compound A0029] | 173.8 | 22.3 | 206.5 |  |  |  |  | inhibition at 0.1 µM [3, 7]: 44.4%
8 | O=C1CC[C@@]2(O)[C@H]3Cc4ccc(O)c5c4[C@@]2(CCN3CC2CC2)[C@H]1O5 [NTX, naltrexone] |  |  |  |  |  |  |  | Kd [4]: ~4 pM
9 | CC1CN(CC(O)COc2ccc(Br)c(F)c2)CC(C)O1 (stereo not drawn) [Compound A0041] | 212.7 | 50.6 | 283.6 |  |  |  |  | mean maximum antinociception ([2]; 32 mg/kg): about 12%; time of maximum antinociception ([2]; 32 mg/kg): 10 to 15 min
10 | CC1CCC(C(C)C)C(OCC(O)CN2CC(C)OC(C)C2)C1 (stereo not drawn) [Compound 3333] |  |  |  |  |  |  |  | [35S]GTPγS binding to Gαo, FLNA-binding compound as agonist 0.1 μM ([1]; listed as A3333): 170.7%; [35S]GTPγS binding to Gαo, FLNA-binding compound as agonist 1 μM + BFNA ([1]; listed as A3333): 65.9%; [35S]GTPγS binding to Gαo, FLNA-binding compound as agonist 1 μM ([1]; listed as A3333): 328.3%; Go (MOR in anti-Gαo immunoprecipitate), average ([5]; 10 μM): 1426.3; Gs/Go-Coupled Ratio, average ([5]; 10 μM): 0.761; Gs/olf (MOR in anti-Gαs/olf immunoprecipitate), average ([5]; 10 μM): 1079.0; Go (MOR in anti-Gαo immunoprecipitate), average ([5]; 100 μM): 1418.8; Gs/Go-Coupled Ratio, average ([5]; 100 μM): 0.756; Gs/olf (MOR in anti-Gαs/olf immunoprecipitate), average ([5]; 100 μM): 1064.8
11 | CC1CCC(C(C)C)C(OCC(O)CN2CCc3ccccc32)C1 (stereo not drawn) [Compound A0065] | 197.6 | 44.9 | 266.8 | about 25% | 112.5 | 126.6 | 115.7 | inhibition at 0.01 µM [3, 9]: 38.7%; inhibition at 0.1 µM [3, 10]: 50%; inhibition at 1 µM [3, 11]: 50.8%
12 | C=CCN1CC[C@]23c4c5ccc(O)c4O[C@H]2C(=O)CC[C@@]3(O)[C@H]1C5 [NLX, naloxone] |  |  |  |  |  |  |  | Kd [4]: ~4 pM
13 | COc1ccc(OCC(O)CN2CCCc3ccccc32)cc1 (stereo not drawn) [Compound A0067] | 170.8 | 33.9 | 254.4 |  | 98.3 | 99.2 | 115.8 | inhibition at 0.01 µM [3, 6]: 32.7%; inhibition at 0.1 µM [3, 7]: 39.1%; inhibition at 1 µM [3, 8]: 44.3%
14 | CC1CCCC(OCC(O)CN2CC(C)OC(C)C2)C1 (stereo not drawn) [Compound A0021] | 133.3 | 12.1 | 275.3 | about 25% |  |  |  | 

— US20100279997A1, “ANALGESIC THAT BINDS FILAMIN A” (priority 2009, published 2010)
